Measurements taken from patent publication US10918753B2, “Use of ozone to control bioburden in precipitated calcium carbonate slurry (PCC)” (Colgate-Palmolive Company, priority 2014, dated 2021).

Test system: gram negative and gram positive bacilli
Assay: Ozone treatment of precipitated calcium carbonate slurry; bioburden / log reduction of bacteria at sampling points
Assay type: cell-based
Experimental: A precipitated calcium carbonate slurry was prepared as shown FIG. 1. At the precipitation phase of the “Region of High Microbial Growth”, FIG. 1), the slurry was contaminated with gram negative and gram positive bacilli. The shiny was then continuously transferred from a precipitation tank (not shown) to a neutralization tank (100). Upon entry into the neutralization tank, the slurry was neutralized using carbon dioxide. A sample was collected from the neutralization tank to assess the initial bioburden of the slurry (3.6×10^6 CFU/g). After neutralization, 3.5 or 5 ppm (depending on trial) of ozone was injected into the slurry after circulation through the pump (120) (FIG. 3). […] The pH of the slurry in the neutralization tank ranged from 6.9 to 8.3 and the temperature ranged from 24° C. to 46° C.
The degree of log reduction in bacteria was sampled at sampling point 1 (160) (FIG. 3) at time zero and every five minutes up to 40 minutes. As depicted in Table 1, below, a 1-2 log reduction of bacteria was observed after 40 minutes under recirculation.
A precipitated calcium carbonate slurry was prepared according to Example 1. Five trials were conducted. The ozone was injected as described in Example 1 at a concentration ranging from 5 ppm to 25 ppm. Samples were taken after 40 minutes of recirculation, 40 minutes after ozone contact with the slurry in the neutralization tank (100) or immediately after the slurry passed through the static mixer (140) as shown in FIG. 3. […] This difference is log reduction may be attributable to the mixing of ozone-treated slurry in the neutralization tank (100) with the non-treated slurry from the precipitation tank (not shown).
The sampling variability was confirmed in further trials by assessing the ozone concentration before and after ozone treatment and assessing the bioburden from samples taken at sampling point 1 (160) or sampling point 2 (150). In one trial, an initial bioburden (without ozone) of a sample collected from the slurry tank was 3.6×10^6 CFU/g. After an ozone injection at a 5 ppm concentration, the amount of bioburden was reduced to 1.7×10^4 CFU/g after 40 minutes recirculation. […] However, when a sample in the third trial was collected and tested at sampling point 2 (150) a few seconds after ozone injection, the bioburden was less than 10 CFU/g. Accordingly, the data support that the disclosed process using ozone treatment is capable of reducing an initial bioburden by 5 log, i.e., 10^6 to 10^1 CFU/g.

O=[O+][O-] [ozone]
log reduction of bacteria (Example 1 summary, 3.5 or 5 ppm ozone, sampling point 1, after 40 minutes under recirculation): 1-2 log
Log Reduction (Example 1 trial T1, sampling point 1, ozone 5.0 ppm, 12% PCC, pH 8.3, 24 °C, 40 minutes under recirculation): 2 log
Log Reduction (Example 1 trial T2, sampling point 1, ozone 5.0 ppm, 28% PCC, pH 7.2, 33 °C, 40 minutes under recirculation): 2 log
Log Reduction (Example 1 trial T3, sampling point 1, ozone 3.5 ppm, 39% PCC, pH 6.9, 33 °C, 40 minutes under recirculation): 1 log
Log Reduction (Example 1 trial T4, sampling point 1, ozone 5.0 ppm, 39% PCC, pH 6.9, 46 °C, 40 minutes under recirculation): 2 log
log reduction of bacteria (Example 2 summary, higher ozone injection (25 ppm)): 4-5 log
log reduction of bacteria (Example 2 summary, lower concentrations of injected ozone): 1-2 log
Log Reduction (Example 2 trial T1, sampling point 1, ozone 7.5 ppm, Recirculation, pH 8.3, 40 minutes): 2 log
Log Reduction (Example 2 trial T2, sampling point 1, ozone 7.5 ppm, Recirculation, pH 7.2, +40 minutes): +2 log
Log Reduction (Example 2 trial T3, sampling point 1, ozone 5 ppm, Within Tank, pH 6.9, 40 minutes): 1 log
Log Reduction (Example 2 trial T4, sampling point 1, ozone 25 ppm, Recirculation, pH 6.9, 40 minutes): 2 log
Log Reduction (Example 2 trial T5, sampling point 2, ozone 25 ppm, After initial flow through static mixer, pH 6.9, seconds): 4-5 log
bioburden (Example 3 another trial, initial bioburden 8.8×10^5 CFU/g, sampling point 2, seconds after ozone injection): 7.0×10^1 CFU/g
reduction of initial bioburden (Example 3 conclusion, 10^6 to 10^1 CFU/g): 5 log
bioburden (Example 3 first trial, initial bioburden 3.6×10^6 CFU/g, ozone 5 ppm, after 40 minutes recirculation): 1.7×10^4 CFU/g
bioburden (Example 3 first trial, initial bioburden 3.6×10^6 CFU/g, ozone 5 ppm, sampling point 2): 9.1×10^1 CFU/g
bioburden (Example 3 third trial, sampling point 1, after ozone treatment and 40 minutes recirculation (mixed with untreated slurry)): 8.8×10^5 CFU/g
bioburden (Example 3 third trial, sampling point 2, a few seconds after ozone injection): less than 10 CFU/g
